Measurements: patent US10130677B2, “Antimicrobial peptide and uses thereof” (priority 2013, dated 2018)
Where two headings read alike, the source gives them in different places.

Experiments:
[1] = test system: S. aureus JAR060131; type: cell-based, Staphylococcus aureus; settings: for IC99.9: approx. 1 × 10^6 CFU/ml S. aureus JAR, within 2 hrs (Table 2)
Experimental: Polypeptides of the invention preferably have an in vitro IC99.9 of at most 150 μM after 2 hours at 37° C. against at least one microbial species in the presence of 50% plasma. Said IC99.9 is preferably determined in accordance with a method for determining the antimicrobial activity as described herein in the Examples. Said method described in the Examples for determining antimicrobial activity of microbes not associated with biofilm involves the mixing of 50 microL of a solution of a polypeptide in PBS with addition of human plasma at a final concentration of 50% and 20 microL of bacterial suspension with 5×10^6 CFU per mL of PBS in a well. After incubation of this mixture for 2 hours at 37° C. under shaking conditions, a sample is used for assessment of the bacterial counts. The lowest peptide concentration at which there is 99.9% of bacteria killed, is called the inhibitory concentration (IC) 99.9. Bacterial counts can be determined by manual CFU counting. For determining antibacterial activity for instance 1×10^6 CFU/ml bacteria are used, for determining antifungal activity for instance 1×10^5 cells/ml are used.
(§1) Peptides were incubated with 1×10^6 CFU/ml of a mid-logarithmic culture of S. aureus JAR060131, methicillin resistant S. aureus (MRSA) LUH14616, Staphylococcus epidermidis RP62a, and Pseudomonas aeruginosa PAO1 in PBS without or with addition of pooled human plasma (Sanquin, Amsterdam, the Netherlands) at a final concentration of 50%. Antimicrobial activity is expressed as the 99.9% lethal concentration (LC99.9), i.e., the lowest peptide concentration which killed ≥99.9% of bacteria after 2 hours of incubation at 37° C. under shaking conditions.

[2] = test system: LPS (E. coli 054)-induced IL-12p40 production; assay: LPS neutralization in whole human blood; type: cell-based; settings: for IC90: LPS-induced IL-12p40, blood from two donors
Source text: (§2) The term “anti-inflammatory activity” of a polypeptide as used herein refers to inhibiting, reducing or preventing an inflammatory response in a subject that has been infected by microbes, e.g. bacteria, viruses, fungi, and/or parasites. Anti-inflammatory activity of polypeptides of the invention is achieved by inhibiting, reducing or preventing the release of pro-inflammatory microbial compounds, such as lipoteichoic acid (LTA), peptidoglycan (PG) and/or lipopolysaccharides (LPS). Anti-inflammatory activity can be measured by methods known in the art. Examples of such method are a LPS neutralization assay and a LTA neutralization assay as described in the Examples of this application. In such method, a polypeptide of the invention is mixed with a fixed concentration of LPS or LTA, such as 500 ng/ml LPS or 2 mg/ml LTA, and incubated for 30 min. Thereafter, these mixtures were added to diluted fresh human whole blood and 20 hours thereafter the level of cytokines (e.g. 1L-8 for LTA and 1L-12p40 for LPS) in the blood sample are measured by ELISA.
(§3) Peptides were pre-incubated with 500 ng/ml LPS (E. coli 054) or 2 mg/ml LTA (S. aureus, endotoxin-free) or 1×10^9 CFU/ml of UV-killed S. aureus JAR060131 for 30 min at 37° C. Diluted whole human blood was stimulated with the peptide-LPS/LTA/S. aureus mixtures for 20 hours at 37° C. IL-12p40 and IL-8 levels in supernatants were determined using ELISA.

[3] = test system: Staphylococcus epidermidis RP62a; type: cell-based; settings: 50% plasma
Experimental: as §1

[4] = test system: A. niger PagsA-lux; assay: Effect on fungal growth; type: cell-based, Aspergillus niger; settings: for concentration inhibiting A. niger growth: 25% plasma, light micrographs only, 16 hours (FIG. 2)
Experimental: The effect of the peptides on fungal growth was assessed using Aspergillus niger. Peptides were incubated with 7.5×10^4 spores/ml of A. niger PagsA-lux in PBS without or with addition of pooled human plasma at a final concentration of 25%. As positive control, spores were treated with the antifungal caspofungin (Cancidas). Absorbance was measured over time and at 16 hours, fungal growth was visualized using light microscopy.

[5] = test system: UV-killed S. aureus JAR060131-induced IL-8 production; assay: S. aureus neutralization in whole human blood; type: cell-based; settings: for IC50: UV-killed S. aureus JAR060131-induced IL-8, blood from one donor
Experimental: as §3

[6] = test system: LTA (S. aureus)-induced IL-8 production; assay: LTA neutralization in whole human blood; type: cell-based; settings: for IC50: LTA-induced IL-8, blood from one donor
Source text: as §2, §3

[7] = test system: S. aureus JAR060131 biofilm formation; type: cell-based, Staphylococcus aureus
Experimental: After solubilization with ethanol, the optical density at 590 nm is determined as a measure of biofilm mass.
Peptides were incubated with 1×10^8 CFU/ml of S. aureus JAR060131 in biofilm-adjusted BM2 in 96-wells polypropylene plates as described in Antimicrob Agents Chemother 2012; 56: 2696-2704. After 24 hours incubation at 37° C., planktonic bacteria were removed by four washes with PBS and biofilms were stained with crystal violet. After solubilization with ethanol, the optical density at 590 nm was determined as a measure of biofilm mass.
To assess the antibiofilm activity of the peptides in the presence of plasma, 96-wells polypropylene plates were coated with plasma by overnight incubation with 20% plasma at 4° C. Wells were washed once with sterile water and inoculated with S. aureus and peptides as described above.

[8] = JAR060131 biofilm formation, 24 h

Row | Substance | IC99.9 ([1]; 50% plasma) [µM] | IC99.9 ([1]; PBS) [µM] | further results
1 | J LRRLYKRVFRLLKRWWRYLKRPVR B (Ac-LRRLYKRVFRLLKRWWRYLKRPVR-NH2) [Peptide P141] | 25.6 | 0.8 | 
2 | J LRKLWKRVVKIWKRYLRQLRRPVR B (Ac-LRKLWKRVVKIWKRYLRQLRRPVR-NH2) [Peptide P153] | 25.6 | 1.6 | 
3 | J LRRVWKRVARIIKRLYRYLKRPVR B (Ac-LRRVWKRVARIIKRLYRYLKRPVR-NH2) [Peptide P161] | 25.6 | 1.6 | 
4 | J LKKLYKRLFKLWKRLYRYLKKPVR B (Ac-LKKLYKRLFKLWKRLYRYLKKPVR-NH2) [Peptide P151] | 25.6 | 1.6 | 
5 | Ac-LKRLYKRVFRLLKRYYRQLRRPVR-NH2 [Peptide P159, J LKRLYKRVFRLLKRYYRQLRRPVR B] | 12.8 | 1.6 | IC90 [2]: 0.25 nM; IC50 ([2]; diluted whole human blood, 20 hours): 0.05 nM; higher bactericidal activity as compared to OP-145 [3]: 43 fold; concentration inhibiting A. niger growth [4]: 102.4 µM; fold lower antifungal activity as compared to OP-145 ([4]; PBS): 2 fold; IC50 [5]: 0.195 µM; fold increased LTA-neutralizing ability versus OP-145 [6]: 4 fold; IC50 [6]: 0.195 µM; IC50 [7, 8]: 12800 nM; IC50 ([7]; plasma-coated wells (FIG. 3B), read-out: concentration inhibiting biofilm formation for 50%): 3200 nM
6 | J LRRLYKRVVKLWKRLFRQLRRPVR B (Ac-LRRLYKRVVKLWKRLFRQLRRPVR-NH2) [Peptide P143] | 51.2 | 1.6 | fold increase of activity in the presence of plasma as compared to OP-145 ([1]; 50% plasma): 4 fold
7 | J LKKLWKRVFRIWKRIFRYLKRPVR B (Ac-LKKLWKRVFRIWKRIFRYLKRPVR-NH2) [Peptide P139] | 51.2 | 0.8 | 
8 | J LRRLWKRLVKILKRWFRYLRRPVR B (Ac-LRRLWKRLVKILKRWFRYLRRPVR-NH2) [Peptide P142] | 51.2 | 0.8 | 
9 | J LKKLYKRLFKILKRILRYLRKPVR B (Ac-LKKLYKRLFKILKRILRYLRKPVR-NH2) [Peptide P146] | 51.2 | 1.6 | 
10 | J LKKLWKRLARLWKRIIRQLKKPVR B (Ac-LKKLWKRLARLWKRIIRQLKKPVR-NH2) [Peptide P160] | 25.6 | 1.6 | 
11 | J LKKVYKRVARLIKRLFRYLKRPVR B [Peptide P155] | 102.4 | 1.6 | fold increase of activity in the presence of plasma as compared to OP-145 ([1]; 50% plasma): 2 fold
12 | Ac-LKRLYKALAKLIKRLYRYLKKPVR-NH2 [Peptide P252, J LKRLYKALAKLIKRLYRYLKKPVR B] |  |  | LC99.9 ([1]; 50% plasma, experiment 2013.01.15 (Table 6)): 51.2 µM; LC99.9 ([1]; 50% plasma, experiment 2013.01.18 (Table 6)): 12.8 µM; LC99.9 ([1]; PBS, experiment 2013.01.15 (Table 6)): 1.6 µM; LC99.9 ([1]; PBS, experiment 2013.01.18 (Table 6)): 0.8 µM
13 | J LRRLWKRVFKIIKRLFRQLKKPVR B (Ac-LRRLWKRVFKIIKRLFRQLKKPVR-NH2) [Peptide P163] | 25.6 | 0.8 | 
14 | J LKKVWKRVARLIKRWFRYLRRPVR B [Peptide P150] | 25.6 | 1.6 | 
15 | J LKKLWKRLARLLKRFIRQLRRPVR B (Ac-LKKLWKRLARLLKRFIRQLRRPVR-NH2) [Peptide P147] | 51.2 | 1.6 | 
16 | J LRRLWKRLVRIIKRIYRQLKRPVR B (Ac-LRRLWKRLVRIIKRIYRQLKRPVR-NH2) [Peptide P140] | 25.6 | 1.6 | 
17 | Ac-LKRLYKRLAKLIKRLYRYLKKPVR-NH2 [Peptide P145, J LKRLYKRLAKLIKRLYRYLKKPVR B] | 25.6 | 1.6 | IC90 [2]: 0.75 nM; higher bactericidal activity as compared to OP-145 [3]: 43 fold; concentration inhibiting A. niger growth [4]: 102.4 µM; fold higher concentration than OP-145 needed to inhibit S. aureus-induced IL-8 production for >50% [5]: 8 fold; IC50 [5]: 1.56 µM; fold increased LTA-neutralizing ability versus OP-145 [6]: 4 fold; IC50 [6]: 0.195 µM; IC50 [7, 8]: 6400 nM; concentration needed to inhibit biofilm formation for 50%, relative to OP-145 and P159 ([7]; plasma-coated wells (FIG. 3B)): two-fold higher concentration
18 | J LRRVYKRLARLIKRYLRQLKKPVR B (Ac-LRRVYKRLARLIKRYLRQLKKPVR-NH2) [Peptide P152] | 25.6 | 1.6 | 
19 | J LRRVYKRLFRLWKRIIRQLRRPVR B (Ac-LRRVYKRLFRLWKRIIRQLRRPVR-NH2) [Peptide P158] | 25.6 | 1.6 | 
20 | J LRKLWKRLAKIIKRLYRYLRRPVR B (Ac-LRKLWKRLAKIIKRLYRYLRRPVR-NH2) [Peptide P154] | 51.2 | 1.6 | 
21 | J LKKLYKRVAKIWKRWIRYLKKPVR B (Ac-LKKLYKRVAKIWKRWIRYLKKPVR-NH2) [Peptide P144] | 25.6 | 1.6 | fold increase of activity in the presence of plasma as compared to OP-145 ([1]; 50% plasma): 8 fold
22 | J LKKVYKRLARLLKRYIRYLRRPVR B (Ac-LKKVYKRLARLLKRYIRYLRRPVR-NH2) [Peptide P149] | 102.4 | 1.6 | fold increase of activity in the presence of plasma as compared to OP-145 ([1]; 50% plasma): 2 fold
23 | J LKRLWKRLFKILKRYYRYLRRPVR B (Ac-LKRLWKRLFKILKRYYRYLRRPVR-NH2) [Peptide P162] | 25.6 | 1.6 | 
24 | J LRRLWKRLVKLWKRFFRYLKKPVR B [Peptide P156] | 51.2 | 1.6 | 
25 | J LKKVWKRVFRILKRFLRYLKRPVR B (Ac-LKKVWKRVFRILKRFLRYLKRPVR-NH2) [Peptide P157] | 51.2 | 0.8 | 
